How the values were obtained:
[1] = tested on: seizure susceptibility; experiment: PTZ kindling after sham or CCI-TBI; conditions: M084 10 mg/kg s.c. 1 hour before each PTZ 35 mg/kg, from 7 days after surgery
Experimental: The fact that only a portion of TBI cases become susceptible to epileptic seizures is a yet unanswered phenomenon in both preclinical and clinical studies. Therefore, we investigated seizure susceptibility within the CCI-TBI model to gain a greater understanding as to the etiology of hyperexcitability spread occurring post-injury. […] In our seizure susceptibility paradigm, 1 or 7 days after experimental procedure, mice were challenged with a subconvulsant dose of PTZ (35 mg/kg s.c.) once-daily to elicit kindling epileptogenesis (FIG. 6A). The progression of motor seizure behavior was observed and timed by direct observation linked to EEG activity (FIG. 6B).
We wished to understand if the TRPC channel upregulation after TBI could be targeted to impede epileptogenic activity. […] Seizure susceptibility was standardized according to the latency to forelimb clonus lasting greater than 5 sec.
Controlled cortical impact traumatic brain injury. The controlled cortical impact (CCI) traumatic brain injury (TBI) model was applied, with a closed skull impact approach. The CCI model causes TBI, but the skull remains intact with minimal hematoma. This type of brain injury model most closely simulates the TBI experienced during blunt-head injuries from vehicular accidents or falls. Mice were anesthetized with isoflurane (3% induction, 1% maintenance) in 100% O2. Body temperature of 37° C. was maintained using a temperature-controlled heated surgical table. The skull was fixed with ear-bars into a stereotaxic frame. A small midline incision was made on the scalp using aseptic surgical techniques. Impact was delivered by cylindrical probe of 5 mm diameter with an Impact One neurotrauma impactor (Leica Biosystems). A calibrated impact was delivered at 4.5 m/sec to a depth of 1 mm and 0.5 sec dwell time to the right parietal cortex (−1.8 mm ML, +2.0 mm AP, −1.0 mm DV). […] The scalp was then sutured closed and mice were placed in a warming recirculation unit and monitored until fully awake and moving freely. […] For consistency, the left hemisphere of both sham and TBI mice is designated as “contralateral” brain, and the right hemisphere is referred to as “ipsilateral”, despite no impact injury occurring in sham mice.
In vivo electroencephalograms. To determine seizure frequency and record brain susceptibility to seizures, mice were implanted with electroencephalogram (EEG) electrodes 24 hr after sham or TBI. A three-channel tethered EEG system was used. The electrode pedestal (P1 Technologies) was secured to the skull with three anchored dental screws and connected to a preamplifier with gain of 25. The three leads were inserted over the left frontal cortex, left parietal cortex, and depth electrode lead into the hippocampus. The Stellate Harmonie acquisition hardware and software were used to collect coincident video and EEG activity. EEGs were inspected for presence of epileptiform spikes and seizures.
Seizure susceptibility assays. Pentylenetetrazol kindling model. Seizure susceptibility was tested with the GABAA receptor antagonist pentylenetetrazol (PTZ) for progression of motor seizure activity. Mice were injected with PTZ (35 mg/kg, s.c.) once per day and scored for motor behavioral seizures.

[2] = tested on: DGGCs; experiment: Ca2+ imaging with calcium green-1 in DGGCs of hippocampal slices, whole-cell mode; type: cell-based, mice; conditions: M084 and ML204 together, 10 μm
Experimental: (§1) Hippocampal Slice Preparation. […] Hippocampal slices were maintained in oxygenated ACSF at 30° C. for 60 min and experiments were performed at 25° C.
Ca2^+ Imaging. Concurrent with patch-clamp electrophysiology, neurons in slices were also imaged (Nikon FN-1, 40× water-immersion objective) via the fluorescent Ca^2+-reporter dye calcium green-1. As a hexapotassium salt, the dye (10 μm) was added to the intracellular patch pipette solution and neurons were patched under whole-cell clamp, as described above. Cells were loaded for 10 min before image acquisition. Fluorescence intensity was obtained using a SOLA Light Engine illumination source (Lumencor) with an output of 3.5 W through a 3-mm-diameter liquid light guide through a Nikon ET-GFP filter. Nikon Elements software was used for image acquisition through a QIClick CCD camera (QImaging). Images were acquired with an exposure time of 200 ms every 2 min using a single-channel, 12-bit rate and no binning. The shutter was closed between each acquisition. For each cell, the corrected total cell fluorescence was measured as the integrated density intensity—(cell area*mean background emission). Ca^2+ signals were measured as the change in fluorescence relative to the baseline fluorescence (ΔF/F0). Averages of four images were thresholded at 10%, masked using a highly averaged image of the cell, and encoded with a pseudocolor look-up table. Group cell fluorescence data were averaged in comparison with normalized intensity at each time point.

[3] = 2015, cited from earlier work
[4] = tested on: TRPC4/5 channels; conditions: description from literature; cited from earlier work
[5] = tested on: DGGCs; experiment: Patch-clamp / current-clamp recordings of DGGCs in hippocampal slices (action potentials, AHP, IM amplitude); type: cell-based, mice
Experimental: as §1

[6] = TRPC4/5 channels blocked, control or plus 77-LH-28-1 3 μM

CCCCNc1nc2ccccc2[nH]1 [M084, N-butyl-1H-benzimidazol-2-amine]
days to clonic seizures [1]: 10.6 ± 0.5 days | days to demonstrate myoclonic jerks [1]: 7.3 ± 0.6 days | days to tonic-clonic seizure behavior [1]: 11.0 ± 0.6 days | maximum calcium-green 1 emission on muscarinic stimulation [2]: 1.61±0.21 fold | brain concentration at time of PTZ challenge ([3]; 1 hour after M084 10 mg/kg s.c., inferred from Yang et al.): likely within the micromolar range | blood-brain barrier crossing ([3]; Yang et al.): crosses the blood-brain barrier | effect on TRPC4/5 channels [4]: potent inhibitor or antagonist | action potential threshold ([5]; M084 10 μm only, n=8 cells): −45.4±1.3 mV | action potential firing rate on M1R agonist ([5]; TRPC4/5 blockade with M084 10 μm, 77-LH-28-1 3 μm): did not increase | AHP amplitude [5, 6]: 13.2 ± 0.7 mV | AHP area [5, 6]: 196.8 ± 13.3 ms* mV | AHP decay [5, 6]: 14.8 ± 0.7 ms | membrane potential values (voltage floor), control ACSF vs 77-LH-28-1 3 μm ([5]; in presence of M084 10 μm): no significant differences

Source: US11878012B2, “Compositions and methods for treating traumatic brain injury” (Board of Regents, the University of Texas System, priority 2020, dated 2024)
